From ChEMBL document CHEMBL2429776, “Cyclic 3-alkyl pyridinium alkaloid monomers from a New Zealand Haliclona sp. marine sponge” (J Nat Prod, 2013)
Calls of active or inactive are those of the source. The calls are words filed in the database; no cut-off is given here.

Columns and labels:
Type in all cases: functional, organism-based
Saccharomyces cerevisiae = test: Antifungal activity against Saccharomyces cerevisiae YCG 117 after 18 hrs; details: YCG 117, 18 h
Candida albicans [1] = test: Antifungal activity against Candida albicans ATCC 10231 at 2 ug after 24 hrs by disk-diffusion assay
Enterococcus faecalis [2] = test: Antimicrobial activity against Enterococcus faecalis ATCC 19433 at 2 ug after 24 hrs by disk-diffusion assay
Candida albicans [3] = test: Antifungal activity against Candida albicans ATCC 10231 at 8 ug after 24 hrs by disk-diffusion assay
Enterococcus faecalis [4] = test: Antimicrobial activity against Enterococcus faecalis ATCC 19433 at 8 ug after 24 hrs by disk-diffusion assay
Candida albicans [5] = test: Antifungal activity against Candida albicans ATCC 10231 at 20 ug after 24 hrs by disk-diffusion assay
Enterococcus faecalis [6] = test: Antimicrobial activity against Enterococcus faecalis ATCC 19433 at 20 ug after 24 hrs by disk-diffusion assay

Row | IC50 (Saccharomyces cerevisiae) | Structure (SMILES) | Activity (Candida albicans [1]) | Activity (Enterococcus faecalis [2]) | Activity (Candida albicans [3]) | Activity (Enterococcus faecalis [4]) | Activity (Candida albicans [5]) | Activity (Enterococcus faecalis [6])
1 | 1.5 µg/mL | C1=C\CCCCCC[n+]2cccc(c2)CCCCCC/1 | inactive | inactive | inactive | inactive | inactive | inactive
2 | 1.5 µg/mL | C1=C\CCCCC[n+]2cccc(c2)CCCCCC/1 | inactive | inactive | inactive | inactive | inactive | inactive
3 | 1.5 µg/mL | c1cc2c[n+](c1)CCCCCCCCCCCCC2 | inactive | inactive | inactive | inactive | inactive | inactive
